Results as given in article PMC10095932 (Molecules, 2023).
Where a SMILES comes first, the peptide text is derived from it. Bridges are numbered along the chain shown (N, C = ends).

Legend:
human NPR-A = biological target: T1, human NPR-A (Homo sapiens, UniProt P16066); assay: cGMP ALPHAscreen, cGMP production in HEK 293 cells transiently overexpressing hNPR-A; type: cell-based; settings: HEK 293 cells overexpressing hNPR-A
T1 construct: expressed in transfected cells; host or cells: HEK 293 cells, transient, Lipofectamine 2000
T1 sequence (P16066 33-1061): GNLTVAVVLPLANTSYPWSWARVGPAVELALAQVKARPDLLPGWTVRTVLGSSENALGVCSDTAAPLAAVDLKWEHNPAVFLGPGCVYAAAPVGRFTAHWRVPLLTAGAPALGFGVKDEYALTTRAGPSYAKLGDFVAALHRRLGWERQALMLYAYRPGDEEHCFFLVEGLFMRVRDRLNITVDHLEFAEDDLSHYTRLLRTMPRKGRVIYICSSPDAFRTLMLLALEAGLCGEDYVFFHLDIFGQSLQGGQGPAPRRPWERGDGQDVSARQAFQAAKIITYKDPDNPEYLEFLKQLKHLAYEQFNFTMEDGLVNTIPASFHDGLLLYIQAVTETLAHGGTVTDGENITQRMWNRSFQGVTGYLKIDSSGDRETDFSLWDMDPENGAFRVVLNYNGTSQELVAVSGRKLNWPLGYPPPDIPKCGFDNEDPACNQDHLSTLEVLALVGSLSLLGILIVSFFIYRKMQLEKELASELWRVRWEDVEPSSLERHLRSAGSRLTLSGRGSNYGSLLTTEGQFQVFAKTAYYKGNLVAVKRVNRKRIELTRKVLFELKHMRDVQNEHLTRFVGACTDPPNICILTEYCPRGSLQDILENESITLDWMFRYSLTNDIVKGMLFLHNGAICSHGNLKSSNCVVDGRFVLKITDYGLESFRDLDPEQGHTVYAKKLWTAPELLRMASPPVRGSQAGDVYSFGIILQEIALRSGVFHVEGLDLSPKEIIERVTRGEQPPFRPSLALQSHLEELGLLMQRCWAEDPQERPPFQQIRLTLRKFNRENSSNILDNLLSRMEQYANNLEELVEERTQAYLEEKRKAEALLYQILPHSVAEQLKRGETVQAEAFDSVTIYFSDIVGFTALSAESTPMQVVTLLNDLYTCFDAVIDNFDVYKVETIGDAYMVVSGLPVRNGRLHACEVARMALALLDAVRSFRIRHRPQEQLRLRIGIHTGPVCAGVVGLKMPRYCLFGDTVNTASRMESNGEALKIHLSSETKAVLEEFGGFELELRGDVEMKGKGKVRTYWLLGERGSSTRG
Method: Cells were cultured at 5% CO2 and 37 °C. HEK 293 cells were cultured in high glucose DMEM (Gibco, Carlsbad, CA, USA) supplemented with 10% FBS, and 1% penicillin/streptomycin. HEK 293 cells were seeded in media lacking penicillin/streptomycin 24 to 48 h pre-transfection. PC12 cells were cultured in high glucose DMEM (Gibco) supplemented with 10% FBS and 1% penicillin/streptomycin.
HEK 293 cells were transfected using the lipofectamine 2000 transfection protocol (Invitrogen). Cells (95% confluence) were transfected with 45% pcDNA3.1/hNPR-A, 45% pcDNA3.1, and 10% pEGFP-NI to the optimal DNA concentration specified in the protocol. The co-transfection with pEGFP-NI plasmid allowed the determination of the transfection efficiency. This was assessed by the estimation of the number of GFP-expressing cells using an Olympus IX70 inverted fluorescence microscope. Transfected cells were used for assay purposes within 24 h.
The cGMP ALPHAscreen was performed using the ALPHAscreen Protein A detection kit and the biotinylated cGMP supplement (Perkin Elmer, Waltham, MA, USA) with rabbit anti-cGMP polyclonal antibody (Biovision, Mountain View, CA, USA). Cells were detached from the flask and the resulting pellet was resuspended in stimulation buffer (HBSS supplemented with 0.1% w/v BSA and 1 mM IBMX at 37 °C). Cells were added to a white 384-well Optiplate (Perkin Elmer, Waltham, USA) to 30,000 cells per well for HEK 293 cells and 10,000 cells per well for PC12 cells. Cells were incubated with different concentrations of test peptides (concentration range of 1 × 10^−5 to 1 × 10^−11 M in stimulation buffer) at 37 °C for 30 min. Cells were lysed with lysis buffer (1 M HEPES, 0.3% Tween-20, 1% BSA in H2O, pH 7.4). Then 5 μL acceptor-bead mix was added to each well under subdued lighting conditions, followed by 5 μL of donor-bead mix. Plates were incubated for ~12 h, slowly shaking at room temperature. After incubation, the ALPHAscreen signal was measured using an EnVision plate reader (Perkin Elmer). The standard curve consisted of cGMP in a concentration range of 1 × 10^−6 to 1 × 10^−12 M. All data points were acquired in triplicate and were analyzed using GraphPad Prism 5.0 software (GraphPad Software, Inc., San Diego, CA, USA).

NEP = biological target: T2, NEP (Homo sapiens, UniProt P08473); assay: Stability to neutral endopeptidase 24.11 (NEP); type: in vitro ADME; settings: 3 h; 100 μL of 500 μM peptide, 500 ng NEP, 100 mM Tris.HCl, 150 mM NaCl, pH 7.4, 37 °C, RP-HPLC peak height
T2 construct: purchased R&D Systems (Minneapolis, MN, USA)
Method: NEP and plasmin stability: About 100 μL of 500 μM peptide was incubated with 500 ng NEP (activity 400 pmol min^−1 μg^−1) or 10 μg plasmin (0.51 U mg^−1, 0.51 μmol min^−1 mg^−1) in 100 mM Tris.HCl and 150 mM NaCl (pH 7.4) at 37 °C. Then, 50 μL aliquots were removed at designated times, quenched by heating to 100 °C for 4 min, and stored at −20 °C until subjected to RP-HPLC analysis.

T2 sequence (P08473 whole entry): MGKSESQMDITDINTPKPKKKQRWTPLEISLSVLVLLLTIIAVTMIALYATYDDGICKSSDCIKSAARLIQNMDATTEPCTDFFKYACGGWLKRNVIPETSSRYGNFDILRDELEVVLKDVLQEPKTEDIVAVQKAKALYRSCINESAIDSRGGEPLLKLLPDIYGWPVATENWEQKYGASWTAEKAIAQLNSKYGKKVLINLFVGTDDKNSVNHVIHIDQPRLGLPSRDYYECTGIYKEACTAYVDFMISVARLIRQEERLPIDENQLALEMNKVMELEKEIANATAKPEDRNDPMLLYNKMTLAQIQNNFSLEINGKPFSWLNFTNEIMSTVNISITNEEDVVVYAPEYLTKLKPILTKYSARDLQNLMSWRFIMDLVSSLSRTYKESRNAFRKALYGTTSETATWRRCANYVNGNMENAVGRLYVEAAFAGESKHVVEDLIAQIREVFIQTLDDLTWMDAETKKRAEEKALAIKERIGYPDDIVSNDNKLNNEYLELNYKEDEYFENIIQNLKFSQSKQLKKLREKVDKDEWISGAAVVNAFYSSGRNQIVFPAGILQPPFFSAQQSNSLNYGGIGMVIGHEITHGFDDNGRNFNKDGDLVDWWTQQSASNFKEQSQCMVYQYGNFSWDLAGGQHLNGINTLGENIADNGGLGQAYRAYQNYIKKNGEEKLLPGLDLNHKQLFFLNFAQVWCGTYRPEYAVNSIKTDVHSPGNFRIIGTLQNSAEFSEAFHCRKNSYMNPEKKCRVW

SMILES: CC[C@H](C)[C@H](NC(=O)[C@H](CCCCN)NC(=O)[C@H](CO)NC(=O)[C@H](CC(=O)O)NC(=O)[C@@H](N)CO)C(=O)NCC(=O)N[C@@H](CC(N)=O)C(=O)NCC(=O)N[C@H]1CSSC[C@@H](C(=O)N[C@@H](CC(N)=O)C(=O)N[C@@H](CCCNC(=N)N)C(=O)N[C@H](C(=O)N[C@@H](CCSC)C(=O)N[C@@H](CCC(N)=O)C(=O)N[C@@H](CC(N)=O)C(=O)N2CCC[C@H]2C(=O)N2CCC[C@H]2C(=O)N[C@@H](CCCCN)C(=O)N[C@@H](CCCCN)C(=O)N[C@@H](Cc2ccccc2)C(=O)N[C@@H](CO)C(=O)NCC(=O)N[C@@H](CCC(=O)O)C(=O)O)[C@@H](C)CC)NC(=O)CNC(=O)[C@H](CC(C)C)NC(=O)CNC(=O)[C@H](CO)NC(=O)[C@H](C(C)C)NC(=O)[C@H](CO)NC(=O)CNC(=O)[C@H]([C@@H](C)CC)NC(=O)[C@H](CCCNC(=N)N)NC(=O)[C@H](CC(=O)O)NC(=O)[C@H](CC(C)C)NC(=O)[C@@H]2CCCN2C(=O)[C@H](Cc2ccccc2)NC(=O)CNC(=O)[C@H](Cc2ccccc2)NC1=O [TNPc] (H-SDSKIGNGCFGFPLDRIGSVSGLGCNRIMQNPPKKFSGE-OH; disulfide 9-25)
- Emax at 10 µM (human NPR-A; HEK293, read-out: cGMP production, % of the maximum response (compared with DNP, hANP, hBNP), at 10 μM): ~30%
- EC50 (human NPR-A; 30 min at 37 °C, cGMP ALPHAscreen, three separate experiments in triplicate, read-out: hNPR-A EC50 (95% CI), potency to stimulate cGMP production): > 10 µM
- state after incubation with NEP (NEP): remained intact
